Laboratory results reported in patent US10894788B2, “Inhibitors of cyclin-dependent kinases” (Kinnate Biopharma Inc., priority 2018, dated 2021).

Target: CDK12 wt/CycK (Homo sapiens (Human), UniProt Q9NYV4)
Assay: Radiometric protein kinase assay (33PanQinase Activity Assay), Assay Condition A (thiol containing conditions)
Format: biochemical
Conditions: not given
Experimental: Example 1—Assay Condition A (Thiol Containing Conditions)
Objective: The IC50 profile of test compounds was determined using three protein kinases.
Test compounds: The compounds were provided as pre-weighed powders in vials. The compounds were dissolved to 1×10^−02M by adding DMSO. 100 μl of each of the resulting stock solutions were transferred into column 2 of four 96 well “master plates”.
Prior to testing, the 1×10^−02M stock solutions in column 2 of the master plates were subjected to a serial, semi-logarithmic dilution using 100% DMSO as a solvent. […] Column 1 and 7 were filled with 100% DMSO as controls. Subsequently, 2×10 μl from each well of the serial diluted copy plates were aliquoted with a 96 channel pipettor into two identical sets of “compound dilution plates”.
In the process, 90 μl H2O were added to each well of a set of compound dilution plates. To minimize potential precipitation, the H2O was added to each plate only a few minutes before the transfer of the compound solutions into the assay plates. Each plate was shaken thoroughly, resulting in a “compound dilution plate/10% DMSO”.
For the assays, 5 μl solution from each well of the compound dilution plates/10% DMSO were transferred into the assay plates. The final volume of the assay was 50 μl. All compounds were tested at 10 final assay concentrations in the range from 1×10^−04M to 3×10^−09M, in singlicate. The final DMSO concentration in the reaction cocktails was 1% in all cases.
Recombinant protein kinases: All protein kinases were expressed in Sf9 insect cells or in E. coli as recombinant GST-fusion proteins or His-tagged proteins, either as full-length or enzymatically active fragments. All kinases were produced from human cDNAs and purified by either GSH-affinity chromatography or immobilized metal. Affinity tags were removed from a number of kinases during purification. The purity of the protein kinases was examined by SDS-PAGE/Coomassie staining, the identity was checked by mass spectroscopy.
Protein kinase assay: A radiometric protein kinase assay (^33PanQinase® Activity Assay) was used for measuring the kinase activity of the three protein kinases. All kinase assays were performed in 96-well FlashPlates™ from PerkinElmer (Boston, Mass., USA) in a 50 μl reaction volume. The reaction cocktail was pipetted in four steps in the following order: • 20 μl of assay buffer (standard buffer) • 5 μl of ATP solution (in H2O) • 5 μl of test compound (in 10% DMSO) • 20 μl enzyme/substrate mix
The following amounts of enzyme and substrate were used per well:
The reaction cocktails were incubated at 30° C. for 60 minutes. The reaction was stopped with 50 μl of 2% (v/v) H3PO4, plates were aspirated and washed two times with 200 μl 0.9% (w/v) NaCl. Incorporation of ^33Pi was determined with a microplate scintillation counter (Microbeta, Wallac). All assays were performed with a BeckmanCoulter/SAGIAN™ Core System.
Evaluation of raw data: The median value of the counts in column 1 (n=8) of each assay plate was defined as “low control”. This value reflects unspecific binding of radioactivity to the plate in the absence of a protein kinase but in the presence of the substrate. The median value of the counts in column 7 of each assay plate (n=8) was taken as the “high control”, i.e. full activity in the absence of any inhibitor. The difference between high and low control was taken as 100% activity.
As part of the data evaluation the low control value from a particular plate was subtracted from the high control value as well as from all 80 “compound values” of the corresponding plate. The residual activity (in %) for each well of a particular plate was calculated by using the following formula: Res. Activity (%)=100×[(cpm of compound−low control)/(high control−low control)]
The residual activities for each concentration and the compound IC50 values were calculated using Quattro Workflow V3.1.1 (Quattro Research GmbH, Munich, Germany).

Chain of CDK12 wt/CycK (Q9NYV4 whole entry): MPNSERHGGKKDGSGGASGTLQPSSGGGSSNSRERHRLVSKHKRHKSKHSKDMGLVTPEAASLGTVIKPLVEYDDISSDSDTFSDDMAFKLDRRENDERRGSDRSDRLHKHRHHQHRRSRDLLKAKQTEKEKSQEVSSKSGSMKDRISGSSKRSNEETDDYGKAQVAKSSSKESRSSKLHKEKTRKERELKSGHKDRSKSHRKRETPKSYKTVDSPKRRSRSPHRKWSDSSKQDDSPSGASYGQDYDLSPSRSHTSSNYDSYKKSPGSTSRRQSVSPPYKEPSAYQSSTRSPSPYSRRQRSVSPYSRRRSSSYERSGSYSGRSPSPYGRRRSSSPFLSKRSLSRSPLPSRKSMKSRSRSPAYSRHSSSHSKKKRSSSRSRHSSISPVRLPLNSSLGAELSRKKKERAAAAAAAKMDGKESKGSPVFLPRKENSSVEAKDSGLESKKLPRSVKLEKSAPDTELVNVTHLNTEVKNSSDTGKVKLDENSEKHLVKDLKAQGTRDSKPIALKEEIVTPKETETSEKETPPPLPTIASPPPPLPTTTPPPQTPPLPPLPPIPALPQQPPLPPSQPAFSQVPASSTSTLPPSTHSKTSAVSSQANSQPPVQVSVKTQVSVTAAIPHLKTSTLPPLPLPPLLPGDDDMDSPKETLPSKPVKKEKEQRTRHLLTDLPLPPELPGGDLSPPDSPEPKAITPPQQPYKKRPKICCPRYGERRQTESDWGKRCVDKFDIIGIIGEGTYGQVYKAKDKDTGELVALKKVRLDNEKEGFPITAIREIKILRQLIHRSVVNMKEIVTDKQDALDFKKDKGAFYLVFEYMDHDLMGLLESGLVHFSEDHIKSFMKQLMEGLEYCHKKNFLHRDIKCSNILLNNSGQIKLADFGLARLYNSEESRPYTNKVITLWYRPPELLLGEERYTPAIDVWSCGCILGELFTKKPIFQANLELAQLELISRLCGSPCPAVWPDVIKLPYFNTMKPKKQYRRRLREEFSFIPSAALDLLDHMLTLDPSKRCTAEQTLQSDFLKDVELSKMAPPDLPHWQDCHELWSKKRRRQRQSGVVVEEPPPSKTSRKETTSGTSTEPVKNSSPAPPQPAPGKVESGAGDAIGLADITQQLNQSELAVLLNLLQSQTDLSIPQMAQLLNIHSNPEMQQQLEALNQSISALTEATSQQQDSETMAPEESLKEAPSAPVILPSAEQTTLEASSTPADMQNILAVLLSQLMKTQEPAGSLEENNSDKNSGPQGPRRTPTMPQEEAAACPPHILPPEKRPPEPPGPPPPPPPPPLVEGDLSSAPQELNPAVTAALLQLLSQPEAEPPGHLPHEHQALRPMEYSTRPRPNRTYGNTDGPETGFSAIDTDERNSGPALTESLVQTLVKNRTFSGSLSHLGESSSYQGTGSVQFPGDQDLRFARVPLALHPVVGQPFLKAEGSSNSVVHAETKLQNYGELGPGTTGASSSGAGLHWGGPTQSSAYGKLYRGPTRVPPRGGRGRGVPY
Chain of CDK12 wt/CycK (O75909 whole entry partner): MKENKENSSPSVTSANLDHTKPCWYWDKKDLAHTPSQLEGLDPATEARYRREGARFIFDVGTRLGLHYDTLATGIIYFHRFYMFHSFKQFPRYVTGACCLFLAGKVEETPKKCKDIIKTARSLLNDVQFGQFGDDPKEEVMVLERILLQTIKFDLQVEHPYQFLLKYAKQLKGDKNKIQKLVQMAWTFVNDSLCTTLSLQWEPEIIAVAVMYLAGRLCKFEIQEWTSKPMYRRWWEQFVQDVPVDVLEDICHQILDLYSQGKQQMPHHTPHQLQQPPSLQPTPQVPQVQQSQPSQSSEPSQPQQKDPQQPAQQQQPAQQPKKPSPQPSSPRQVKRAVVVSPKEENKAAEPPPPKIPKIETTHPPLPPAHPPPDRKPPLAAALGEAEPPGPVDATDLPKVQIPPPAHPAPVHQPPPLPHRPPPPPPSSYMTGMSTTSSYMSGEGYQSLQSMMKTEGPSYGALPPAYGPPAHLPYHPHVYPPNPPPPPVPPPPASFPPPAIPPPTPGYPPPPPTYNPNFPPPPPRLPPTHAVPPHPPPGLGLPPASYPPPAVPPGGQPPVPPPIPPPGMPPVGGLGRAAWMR

| Compound | IC50 |
| --- | --- |
| C=CC(=O)Nc1ccc(C(=O)N2CC[C@@H](Nc3ncc(Cl)cn3)C2)cc1OCCN(C)C [Example 112, (R)—N-(4-(3-((5-chloropyrimidin-2-yl)amino)pyrrolidine-1-carbonyl)-2-(2-(dimethylamino)ethoxy)phenyl)acrylamide] | 0.1 to 1 µM |

Same assay, conditions: thiol containing conditions (1.2 mM DTT), ATP 0.3 μM; read-out: CDK12 IC50 Condition A

| Compound | IC50 |
| --- | --- |
| [2H]c1nc(N[C@@H]2CCN(C(=O)c3ccc(NC(=O)C=C)cc3)C2)nc(NC)c1Cl [Example 111, (R)—N-(4-(3-((5-chloro-4-deutero-6-(methylamino)pyrimidin-2-yl)amino)pyrrolidine-1-carbonyl)phenyl)acrylamide] | < 0.1 µM |
| [2H]C([2H])([2H])Oc1nc(N[C@@H]2CCN(C(=O)c3ccc(NC(=O)/C=C/CN(C)C)cc3)C2)ncc1Cl [Example 114, (R,E)-N-(4-(3-((5-chloro-4-(trideuteromethoxy)pyrimidin-2-yl)amino)pyrrolidine-1-carbonyl)phenyl)-4-(dimethylamino)but-2-enamide] | 0.1 to 1 µM |
| COc1nc(N[C@@H]2CCN(C(=O)c3ccc(NC(=O)/C=C/CN(C)C)cc3)C2)ncc1Cl [Example 115, (R,E)-N-(4-(3-((5-chloro-4-methoxypyrimidin-2-yl)amino)pyrrolidine-1-carbonyl)phenyl)-4-(dimethylamino)but-2-enamide] | 0.1 to 1 µM |
| O=C(c1cccc(N2C(=O)C=CC2=O)c1)N1CC[C@@H](Nc2ncc(Cl)cn2)C1 [Example 116, (R)-1-(3-(3-((5-chloropyrimidin-2-yl)amino)pyrrolidine-1-carbonyl)phenyl)-1H-pyrrole-2,5-dionefuran-2,5-dione] | 1 to 10 µM |
| COc1nc(N[C@@H]2CCN(C(=O)c3ccc(NC(=O)/C=C/CN(C)C)c(C)c3)C2)ncc1Cl [Example 117, (R,E)-N-(4-(3-((5-chloro-4-methoxypyrimidin-2-yl)amino)pyrrolidine-1-carbonyl)-2-methylphenyl)-4-(dimethylamino)but-2-enamide] | 0.1 to 1 µM |
| C=CC(=O)Nc1ccc(C(=O)N2CC[C@@H](Nc3ncc(C(F)(F)F)c(N(C)C)n3)C2)cc1 [Example 118, (R)—N-(4-(3-((4-(dimethylamino)-5-(trifluoromethyl)pyrimidin-2-yl)amino)pyrrolidine-1-carbonyl)phenyl)acrylamide] | 10 to 30 µM |
| C=CC(=O)Nc1ccc(C(=O)N2CC[C@@H](Nc3ncc(Cl)c(OCC)n3)C2)cc1N1CCN(C)CC1 [Example 119, (R)—N-(4-(3-((5-chloro-4-ethoxypyrimidin-2-yl)amino)pyrrolidine-1-carbonyl)-2-(4-methylpiperazin-1-yl)phenyl)acrylamide] | 0.1 to 1 µM |
| C=CC(=O)Nc1ccc(C(=O)N2CC[C@@H](Nc3ncc(C(F)(F)F)c(NC)n3)C2)cc1 [Example 120, (R)—N-(4-(3-((4-(methylamino)-5-(trifluoromethyl)pyrimidin-2-yl)amino)pyrrolidine-1-carbonyl)phenyl)acrylamide] | < 0.1 µM |
| C=CC(=O)Nc1ccc(C(=O)N2CC[C@@H](Nc3ncc(Cl)c(OCCOCC)n3)C2)cc1N1CCN(C)CC1 [Example 123, (R)—N-(4-(3-((5-chloro-4-(2-ethoxyethoxy)pyrimidin-2-yl)amino)pyrrolidine-1-carbonyl)-2-(4-methylpiperazin-1-yl)phenyl)acrylamide] | 0.1 to 1 µM |
| C#CC(=O)Nc1ccc(C(=O)N2CC[C@@H](Nc3ncc(Cl)c(OC)n3)C2)cc1 [Example 124, (R)—N-(4-(3-((5-chloro-4-methoxypyrimidin-2-yl)amino)pyrrolidine-1-carbonyl)phenyl)propiolamide] | < 0.1 µM |
| C#CC(=O)Nc1ccc(C(=O)N2CC[C@@H](Nc3ncc(Cl)cn3)C2)cc1 [Example 125, (R)—N-(4-(3-((5-chloropyrimidin-2-yl)amino)pyrrolidine-1-carbonyl)phenyl)propiolamide] | < 0.1 µM |
| C=CC(=O)Nc1ccc(C(=O)N2CC[C@@H](Nc3ncc(Cl)cn3)C2)cc1N1CCC(N(C)C)C1 (stereo partly drawn) [Example 127, N-(4-((R)-3-((5-chloropyrimidin-2-yl)amino)pyrrolidine-1-carbonyl)-2-(3-(dimethylamino)pyrrolidin-1-yl)phenyl)acrylamide] | 0.1 to 1 µM |
| [2H]C([2H])([2H])Oc1nc(N[C@@H]2CCN(C(=O)c3cccc(N4C(=O)C=CC4=O)c3)C2)ncc1Cl [Example 128, (R)-1-(3-(3-((5-chloro-4-(trideuteriomethoxy)pyrimidin-2-yl)amino)pyrrolidine-1-carbonyl)phenyl)-1H-pyrrole-2,5-dione] | 1 to 10 µM |
| C=CC(=O)N1CCc2ccc(C(=O)N3CC[C@@H](Nc4ncc(Cl)cn4)C3)cc2C1 [Example 130, (R)-1-(7-(3-((5-chloropyrimidin-2-yl)amino)pyrrolidine-1-carbonyl)-3,4-dihydroisoquinolin-2(1H)-yl)prop-2-en-1-one] | 0.1 to 1 µM |
| C/C=C/C(=O)Nc1ccc(C(=O)N2CC[C@@H](Nc3ncc(Cl)cn3)C2)cc1 [Example 131, (R,E)-N-(4-(3-((5-chloropyrimidin-2-yl)amino)pyrrolidine-1-carbonyl)phenyl)but-2-enamide] | 0.1 to 1 µM |
| C=CC(=O)N1CCc2cc(C(=O)N3CC[C@@H](Nc4ncc(Cl)cn4)C3)ccc2C1 [Example 132, (R)-1-(6-(3-((5-chloropyrimidin-2-yl)amino)pyrrolidine-1-carbonyl)-3,4-dihydroisoquinolin-2(1H)-yl)prop-2-en-1-one] | 1 to 10 µM |
| N#CCC(=O)Nc1ccc(C(=O)N2CC[C@@H](Nc3ncc(Cl)cn3)C2)cc1 [Example 133, (R)—N-(4-(3-((5-chloropyrimidin-2-yl)amino)pyrrolidine-1-carbonyl)phenyl)-2-cyanoacetamide] | 0.1 to 1 µM |
| CN(C)/C=C(\C#N)C(=O)Nc1ccc(C(=O)N2CC[C@@H](Nc3ncc(Cl)cn3)C2)cc1 [Example 134, (R)—N-(4-(3-((5-chloropyrimidin-2-yl)amino)pyrrolidine-1-carbonyl)phenyl)-2-cyano-3-(dimethylamino)acrylamide] | 0.1 to 1 µM |
| CN(C)C=C(C#N)C(=O)Nc1cccc(C(=O)N2CC[C@@H](Nc3ncc(Cl)cn3)C2)c1 [Example 135, (R)—N-(3-(3-((5-chloropyrimidin-2-yl)amino)pyrrolidine-1-carbonyl)phenyl)-2-cyano-3-(dimethylamino)acrylamide] | 1 to 10 µM |
| C=CC(=O)N1CCc2ccc(C(=O)N3CC[C@@H](Nc4ncc(Cl)cn4)C3)cc21 [Example 136, (R)-1-(6-(3-((5-chloropyrimidin-2-yl)amino)pyrrolidine-1-carbonyl)indolin-1-yl)prop-2-en-1-one] | 0.1 to 1 µM |
| C=CC(=O)Nc1ccc(C(=O)N2CC[C@@H](Nc3ncc(Cl)c(OCCO)n3)C2)cc1 [Example 137, (R)—N-(4-(3-((5-chloro-4-(2-hydroxyethoxy)pyrimidin-2-yl)amino)pyrrolidine-1-carbonyl)phenyl)acrylamide] | < 0.1 µM |
| [2H]c1nc(N[C@@H]2CCN(C(=O)c3ccc(NC(=O)C=C)cc3)C2)nc(OC([2H])([2H])[2H])c1Cl [Example 138, (R)—N-(4-(3-((5-chloro-4-deutero-6-(trideuteromethoxy)pyrimidin-2-yl)amino)pyrrolidine-1-carbonyl)phenyl)acrylamide] | < 0.1 µM |
| O=C(c1ccc(N2C(=O)C=CC2=O)cc1)N1CC[C@@H](Nc2ncc(Cl)cn2)C1 [Example 140, (R)-1-(4-(3-((5-chloropyrimidin-2-yl)amino)pyrrolidine-1-carbonyl)phenyl)-1H-pyrrole-2,5-dione] | 1 to 10 µM |
| O=C(Nc1ccc(C(=O)N2CC[C@@H](Nc3ncc(Cl)cn3)C2)cc1)C1CO1 (stereo partly drawn) [Example 141, N-(4-((R)-3-((5-chloropyrimidin-2-yl)amino)pyrrolidine-1-carbonyl)phenyl)oxirane-2-carboxamide] | 1 to 10 µM |
